Like-named read-outs stand apart in the source and are kept apart here.
Legend:
A-498 = A-498 kidney cancer cell viability (Real-Time-Glo); format: cell-based; conditions: Homo sapiens, A498; 72 hr; read-out: IC50, Cell line: A-498
Method: To determine the plating density for cell viability assays, for each cell line, cells were counted and diluted to final densities of 2.5, 5, 10 and 20 thousand per 100 μl of their respective growth media per well in 96 well plates. A Promega Real-Time-Glo cell viability kit was used to determine the optimal concentration for cell plating so that each cell line would be within the linear part of its growth curve after 72 hrs in culture. For the determination of test compound IC50s different cancer cell lines were plated in 96 well plates in the pre-determined optimal density for each cell line. Test compounds were then added at different concentrations for the creation of six-point curve and cell density was determined using the Promega Real-Time-Glo cell viability kit after 24, 48, and 72 hrs in culture. Test compound 72 hr IC50s were calculated using the AAT Bioquest IC50 calculator.

CYP1A2 = target: T1, CYP1A2 (Homo sapiens, UniProt P05177); test: CYP-direct inhibition, CYP1A2; format: in vitro ADME
T1 construct: from tissue; host or cells: pooled human liver microsomes
T1 sequence (P05177 1-516): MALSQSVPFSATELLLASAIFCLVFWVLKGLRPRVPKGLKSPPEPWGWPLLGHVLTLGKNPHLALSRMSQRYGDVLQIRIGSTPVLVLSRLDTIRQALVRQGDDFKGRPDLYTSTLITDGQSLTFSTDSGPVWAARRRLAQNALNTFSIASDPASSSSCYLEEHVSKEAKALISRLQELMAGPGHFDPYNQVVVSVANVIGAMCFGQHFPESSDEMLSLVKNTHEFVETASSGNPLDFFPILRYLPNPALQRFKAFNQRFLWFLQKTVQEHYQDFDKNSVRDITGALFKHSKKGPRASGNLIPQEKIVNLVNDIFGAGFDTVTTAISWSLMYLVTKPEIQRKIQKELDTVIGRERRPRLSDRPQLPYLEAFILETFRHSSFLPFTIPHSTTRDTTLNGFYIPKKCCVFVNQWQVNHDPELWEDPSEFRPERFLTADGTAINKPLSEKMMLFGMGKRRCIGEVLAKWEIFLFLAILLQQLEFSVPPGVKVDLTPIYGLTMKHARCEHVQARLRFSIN
Method: (§1) Many drugs inhibit cytochrome P450 enzymes to cause clinically significant changes in the pharmacokinetics of other drugs. In vitro cytochrome P450 inhibition, can provide crucial information in evaluating potential clinical drug-drug interactions and is useful for focusing in vivo tests to areas of concern. The cytochrome P450 inhibition assay was developed by preparing a working cocktail solution consisting of six probe substrates 10 μM ethoxy-resorufin (CYP1A2), 100 μM rosiglitazone (CYP2C8), 50 μM diclofenac (CYP2C9), 300 μM S-mephenytoin (CYP2C19), 50 μM dextromethorphan (CYP2D6), and 20 μM midazolam (CYP3A4). A mixture solution consists of 140 uL of 0.286 mg/mL of pooled human liver microsome working solution and 20 uL working solutions of test articles, standard control inhibitors, or positive control placebo and 20 uL of substrate cocktail mixture working solution was prepared. The mixture solution was pre-warm in a gentle shaking bath at 37±2° C. for 5 minutes. The enzymatic reaction started by adding 20 uL of NRS working solution to the mixture solution and incubated for 10 minutes at 37±2° C. To stop the reaction, an addition of 400 μL cold stop solution (acetonitrile containing 50 ng/mL Tolbutamide as an internal standard (I.Std.) was added to the mixture solution. The final concentration of test article, inhibitors, substrates, and cofactors are noted in Table 0.1 below. Two individual samples were prepared for each test compound. The extracted samples were vortexed and then centrifuged at 4500 rpm for 7 minutes using Eppendorf Centrifuge 5910R. 200 uL of supernatant was diluting with 200 uL of 50% Methanol into 96-DW plate for LC/MS/MS analysis
(§2) Concentration-response plots are used to determine the effects of an inhibitor on an enzymatic reaction. A typical concentration-response plot provides fractional activity (Y axis) is plotted as a function of log inhibitor concentration (X axis). The data are fitted using a standard Sigmoidal dose-response equation which is also called a […] logistic equation. The concentration of compound that results in 50% inhibition of maximal activity is termed as the IC50 (inhibitor concentration yielding 50% inhibition). IC50 value is calculated using Prism GraphPad software, version 9. […].
(§3) Cytochrome P450 inhibition of a drug is a key factor in determining pharmacokinetic drug-drug interactions. The objective of this study was to evaluate the inhibition potential of G9a inhibitors on six (6) major human cytochrome P450 enzymes, including CYP1A2, CYP2C8, CYP2C9, CYP2C19, CYP2D6, and CYP3A4. Inhibition was determined by using a substrate cocktail and analyzing the rate of specific metabolites formation. The cytochrome P450 inhibition assay was developed using a cocktail consisting of six (6) probe substrates ethoxy-resorufin (CYP1A2), rosiglitazone (CYP2C8), diclofenac (CYP2C9), S-mephenytoin (CYP2C19), dextromethorphan (CYP2D6), and midazolam (CYP3A4). The cocktail was incubated in human liver microsome with NADPH regenerating system (NRS) in a shaking bath at 37±2° C. The formation of specific metabolites was monitored by LC/MS/MS. Test compound was added to the cocktail-liver microsome mixture at varying concentrations and its effect on cytochrome P450 activity was determined by analyzing the rate of specific metabolite formation. The percent inhibition was calculated and plotted with reference to the concentration, and the IC50 value for inhibition was derived by fitting the data with a using log(inhibitor) vs. normalized response with variable slope least squares fit by Graphpad Prism® software. […].

CYP2C8 = target: T2, CYP2C8 (Homo sapiens, UniProt P10632); test: CYP-direct inhibition, CYP2C8; format: in vitro ADME
T2 construct: from tissue; host or cells: pooled human liver microsomes
T2 sequence (P10632 1-490): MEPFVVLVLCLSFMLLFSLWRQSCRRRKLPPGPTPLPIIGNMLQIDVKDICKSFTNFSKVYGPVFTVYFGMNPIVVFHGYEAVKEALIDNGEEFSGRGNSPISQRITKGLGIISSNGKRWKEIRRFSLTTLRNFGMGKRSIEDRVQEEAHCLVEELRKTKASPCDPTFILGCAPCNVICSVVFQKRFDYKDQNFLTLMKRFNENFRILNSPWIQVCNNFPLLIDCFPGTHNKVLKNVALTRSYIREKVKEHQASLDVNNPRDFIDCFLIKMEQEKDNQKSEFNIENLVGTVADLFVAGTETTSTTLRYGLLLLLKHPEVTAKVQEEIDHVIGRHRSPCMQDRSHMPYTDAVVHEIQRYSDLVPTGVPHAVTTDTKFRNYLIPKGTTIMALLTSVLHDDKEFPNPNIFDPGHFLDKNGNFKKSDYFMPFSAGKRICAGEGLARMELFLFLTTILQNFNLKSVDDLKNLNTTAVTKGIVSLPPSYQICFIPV
Method: as §1, §2, §3

PAMPA permeability = conditions: for Papp at 5 h, 20 μM: PAMPA, 5 hours at RT
Source text: Parallel artificial membrane permeability (PAMPA) assay is a non-cell based assay designed to predict in vivo biological membrane permeability of drugs in early stage of drug discovery. […] The Corning Gentest Pre-coated PAMPA plate system was designed by 96-well insert system with a 0.45 μm PVDF (polyvinylidene fluoride) filter plate which has been pre-coated with structured tri-layers of phospholipids (lipid/oil/lipid) and a matched receiver microplate.
Donor solutions of test compounds (300 μL, 20 μM in PBS/MeOH 90:10) were added to each well of the donor plate. 200 μL of PBS/MeOH 90:10 was added to each well of the acceptor plate. The acceptor plate was coupled with the donor plate and incubated for 5 hours at room temperature (RT) without agitation. In each plate, compounds were tested in triplicate. At the end of the incubation, drug concentration in the initial donor solution, acceptor and the donor wells were determined using LC/MS/MS. A five (5) points standard curve from 0.1 to 1000 nM for each test compound were prepared. Analyte samples were diluted to within standard curve concentration with ACN/H2O 50:50 prior analysis.
All samples were analyzed by electrospray ionization (ESI) liquid chromatograph/mass spectrometry (LC/MS) system utilizing Sciex 5500 quadropule ion trap (Qtrap) mass spectrometry with Shidmazu Nexera X2 UHPLC. The LC-MS/MS instrument monitored each of the test compound in the study based of their respective mass-to-charge (m/z) transitions and MS parameters. Chromatographic separation was achieved on Phenomenex Luna C18 column (50×2.0 mm, 3 μm particle size) by using a gradient elution: mobile phase A contains 0.1% formic acid in water and mobile phase B contains 0.1% formic acid in acetonitrile; A/B (99:1) from 0 to 1 minutes; to A/B (1:99) from 1 to 4 minutes; A/B (1:99) from 4 to 8 minutes; to A/B (99:1) from 8 to 8.20 minutes; A/B (99:1) from 8.2 to 9 minutes. The flow rate was 0.4 mL/min and the column temperature was maintained at 35° C. and autosampler temperature at 4° C. For detection, the electrospray ionization operated in the positive mode using multiple reaction monitoring (MRM).
Data acquisition, and peak integrations were obtained by Analyst® Version 1.7.1 (Sciex) operating with Windows® (Microsoft). The standard curve regressions and sample concentrations were generated and calculated by Analyst®. Concentrations in the sample solutions were determined based on the measured peak area ratios from the response of the analyte to the internal standard with reference to the standard calibration curve. All sample calculations were calculated using a linear regression with 1/x^2 weighting (where x is the concentration of given calibration standard level).
Permeability of the test compounds was calculated using the following formula:
The permeability of compounds was evaluated with the parallel artificial membrane permeation assay (PAMPA) as an in vivo model of passive diffusion across a porous filter coated with a lipid/oil/lipid tri-layer artificial membrane. […] Donor solutions of test compounds (300 μL, 20 μM in PBS/MeOH 90:10) were added to each well of the donor plate. 200 μL of PBS/MeOH 90:10 was added to each well of the acceptor plate. The acceptor plate was coupled with the donor plate and incubated for 5 hours at room temperature (RT) without agitation. In each plate, compounds were tested in triplicate. At the end of the incubation, drug concentration in the initial donor solution, acceptor and the donor wells were determined using LC/MS/MS. Permeability of test compounds was calculated based on the formula described in the General Procedures above. The PAMPA permeability classification criteria are categorized into three (3) classes with a high (Pe≥1.5×10−6 cm/s), intermediate (5.5×10−8<Pe<1.5×10−6 cm/s), and low (Pe<5.5×10−8 cm/s) permeability.

[1] = human liver microsome, substrate ethoxy-resorufin, read-out: IC50 CYP-1A2
[2] = PAMPA permeability Classification, 20 μM donor
[3] = Permeability, Pe, 20 μM donor in PBS/MeOH 90:10

SMILES: COc1cc2c(Nc3ccncc3)nc(N3CCC(F)(F)CC3)nc2cc1OCCCN1CCCC1 [Compound 7, 2-(4,4-difluoropiperidin-1-yl)-6-methoxy-N-(pyridin-4-yl)-7-(3-(pyrrolidin-1-yl)propoxy)quinazolin-4-amine]
- IC50 (A-498): 1 to 5 µM
- IC50 (CYP1A2; [1]): > 100 µM
- IC50 (CYP2C8): 75.7 µM
- Papp at 5 h, 20 μM (PAMPA permeability; [2]): 0.055 to 1.5 ×10⁻⁶ cm/s
- Papp at 5 h, 20 μM (PAMPA permeability; [3]): 0.584 ×10⁻⁶ cm/s

SMILES: COc1cc2c(NC3CCN(C(C)C)CC3)nc(C#N)nc2cc1OCCCN1CCCC1 [Compound 235, 4-((1-isopropylpiperidin-4-yl)amino)-6-methoxy-7-(3-(pyrrolidin-1-yl)propoxy)quinazoline-2-carbonitrile]
- IC50 (A-498): 5 to 10 µM
- IC50 (CYP1A2; [1]): > 100 µM
- IC50 (CYP2C8): > 100 µM
- Papp at 5 h, 20 μM (PAMPA permeability; [2]): < 0.055 ×10⁻⁶ cm/s
- Papp at 5 h, 20 μM (PAMPA permeability; [3]): 0.0046 ×10⁻⁶ cm/s

SMILES: COc1cc2c(NC3CCN(C(C)C)CC3)nc(N3CCC3)nc2cc1OCCCN1CCCC1 [Compound 234, 2-(azetidin-1-yl)-N-(1-isopropylpiperidin-4-yl)-6-methoxy-7-(3-(pyrrolidin-1-yl)propoxy)quinazolin-4-amine]
- IC50 (A-498): 5 to 10 µM
- IC50 (CYP1A2; [1]): > 100 µM
- IC50 (CYP2C8): > 100 µM
- Papp at 5 h, 20 μM (PAMPA permeability; [2]): < 0.055 ×10⁻⁶ cm/s
- Papp at 5 h, 20 μM (PAMPA permeability; [3]): 0.000285 ×10⁻⁶ cm/s

SMILES: COc1cc2c(NC3CCN(C(C)C)CC3)nc(-n3ccnc3)nc2cc1OCCCN1CCCC1 [Compound 156, 2-(1H-imidazol-1-yl)-N-(1-isopropylpiperidin-4-yl)-6-methoxy-7-(3-(pyrrolidin-1-yl)propoxy)quinazolin-4-amine]
- IC50 (A-498): 5 to 10 µM
- IC50 (CYP1A2; [1]): > 100 µM
- IC50 (CYP2C8): > 100 µM
- Papp at 5 h, 20 μM (PAMPA permeability; [2]): < 0.055 ×10⁻⁶ cm/s
- Papp at 5 h, 20 μM (PAMPA permeability; [3]): 0.00225 ×10⁻⁶ cm/s

SMILES: COc1cc2c(N[C@H]3CCCNC3)nc(N3CCCC3)nc2cc1OCCCN1CCCC1 [Compound 158, (S)-6-methoxy-N-(piperidin-3-yl)-2-(pyrrolidin-1-yl)-7-(3-(pyrrolidin-1-yl)propoxy)quinazolin-4-amine]
- IC50 (CYP1A2; [1]): > 100 µM
- IC50 (CYP2C8): > 100 µM
- Papp at 5 h, 20 μM (PAMPA permeability; [2]): < 0.055 ×10⁻⁶ cm/s
- Papp at 5 h, 20 μM (PAMPA permeability; [3]): 0.00453 ×10⁻⁶ cm/s

SMILES: COc1cc2c(NC3CCS(=O)(=O)CC3)nc(N3CCCN(C)CC3)nc2cc1OCCCN1CCCC1 [Compound 110, 4-((6-methoxy-2-(4-methyl-1,4-diazepan-1-yl)-7-(3-(pyrrolidin-1-yl)propoxy)quinazolin-4-yl)amino)tetrahydro-2H-thiopyran 1,1-dioxide]
- IC50 (CYP1A2; [1]): > 100 µM
- IC50 (CYP2C8): > 100 µM
- Papp at 5 h, 20 μM (PAMPA permeability; [2]): < 0.055 ×10⁻⁶ cm/s
- Papp at 5 h, 20 μM (PAMPA permeability; [3]): 0.00676 ×10⁻⁶ cm/s

SMILES: COc1cc2c(NC3CCN(C(C)C)CC3)nc(N3CCC(F)(F)CC3)nc2cc1OCCCN1CCCC1 [Compound 400, 2-(4,4-difluoropiperidin-1-yl)-N-(1-isopropylpiperidin-4-yl)-6-methoxy-7-(3-(pyrrolidin-1-yl)propoxy)quinazolin-4-amine, reference compound]
- IC50 (A-498): 10 to 20 µM
- IC50 (CYP1A2): > 100 µM
- IC50 (CYP2C8): > 100 µM

SMILES: COc1cc2c(NC3CCS(=O)(=O)CC3)nc(N3CCC(F)(F)CC3)nc2cc1OCCCN1CCCC1 [Compound 1, 4-((2-(4,4-difluoropiperidin-1-yl)-6-methoxy-7-(3-(pyrrolidin-1-yl)propoxy)quinazolin-4-yl)amino)tetrahydro-2H-thiopyran 1,1-dioxide]
- IC50 (CYP1A2; [1]): > 100 µM
- IC50 (CYP2C8): 89.1 µM
- Papp at 5 h, 20 μM (PAMPA permeability; [2]): < 0.055 ×10⁻⁶ cm/s
- Papp at 5 h, 20 μM (PAMPA permeability; [3]): 0.0441 ×10⁻⁶ cm/s

SMILES: COc1cc2c(NC3COC3)nc(N3CCC(F)(F)CC3)nc2cc1OCCCN1CCCC1 [Compound 11, 2-(4,4-difluoropiperidin-1-yl)-6-methoxy-N-(oxetan-3-yl)-7-(3-(pyrrolidin-1-yl)propoxy)quinazolin-4-amine]
- IC50 (CYP1A2; [1]): > 100 µM
- IC50 (CYP2C8): 16 µM
- Papp at 5 h, 20 μM (PAMPA permeability; [2]): 0.055 to 1.5 ×10⁻⁶ cm/s
- Papp at 5 h, 20 μM (PAMPA permeability; [3]): 0.458 ×10⁻⁶ cm/s

SMILES: COc1cc2c(NC3CCOCC3)nc(N3CCCN(C)CC3)nc2cc1OCCCN1CCCC1 [Compound 237, 6-methoxy-2-(4-methyl-1,4-diazepan-1-yl)-7-(3-(pyrrolidin-1-yl)propoxy)-N-(tetrahydro-2H-pyran-4-yl)quinazolin-4-amine]
- IC50 (CYP1A2; [1]): > 100 µM
- IC50 (CYP2C8): 95.5 µM
- Papp at 5 h, 20 μM (PAMPA permeability; [2]): < 0.055 ×10⁻⁶ cm/s
- Papp at 5 h, 20 μM (PAMPA permeability; [3]): 0.00431 ×10⁻⁶ cm/s

SMILES: COc1cc2c(NC3CCS(=O)(=O)CC3)nc(N3CCOCC3)nc2cc1OCCCN1CCCC1 [Compound 102, 4-((6-methoxy-2-morpholino-7-(3-(pyrrolidin-1-yl)propoxy)quinazolin-4-yl)amino)tetrahydro-2H-thiopyran 1,1-dioxide]
- IC50 (CYP1A2; [1]): > 100 µM
- IC50 (CYP2C8): 60.6 µM
- Papp at 5 h, 20 μM (PAMPA permeability; [2]): < 0.055 ×10⁻⁶ cm/s
- Papp at 5 h, 20 μM (PAMPA permeability; [3]): 0.000648 ×10⁻⁶ cm/s

SMILES: COc1cc2c(NCC(N)=O)nc(N3CCC(F)(F)CC3)nc2cc1OCCCN1CCCC1 [Compound 9, 2-((2-(4,4-difluoropiperidin-1-yl)-6-methoxy-7-(3-(pyrrolidin-1-yl)propoxy)quinazolin-4-yl)amino)acetamide]
- IC50 (CYP1A2; [1]): > 100 µM
- IC50 (CYP2C8): > 100 µM
- Papp at 5 h, 20 μM (PAMPA permeability; [2]): < 0.055 ×10⁻⁶ cm/s
- Papp at 5 h, 20 μM (PAMPA permeability; [3]): 0.00981 ×10⁻⁶ cm/s

SMILES: COCCNc1nc(N2CCC(F)(F)CC2)nc2cc(OCCCN3CCCC3)c(OC)cc12 [Compound 4, 2-(4,4-difluoropiperidin-1-yl)-6-methoxy-N-(2-methoxyethyl)-7-(3-(pyrrolidin-1-yl)propoxy)quinazolin-4-amine]
- IC50 (CYP1A2; [1]): > 100 µM
- IC50 (CYP2C8): 27.4 µM
- permeability / oral absorption potential (in words) (PAMPA permeability): very high permeability
- Papp at 5 h, 20 μM (PAMPA permeability; [2]): > 1.5 ×10⁻⁶ cm/s
- Papp at 5 h, 20 μM (PAMPA permeability; [3]): 1.77 ×10⁻⁶ cm/s
